{
  "source": "patent US7671201B2",
  "about": "“Phenyl substituted cyclic derivatives” (priority 2003, dated 2010)",
  "test_system": "tobacco budworm (Heliothis virescens [Fabricius])",
  "settings": "0.25 millimolar on the surface of the diet, second instar larvae, five-day exposure; for Percent Mortality: compared to total number of insects infested; for Percent Growth Inhibition: inhibition of insect weight relative to untreated controls",
  "method": "Candidate insecticides were evaluated for activity against the tobacco budworm (Heliothis virescens [Fabricius]) in a surface-treated diet test.\nIn this test one mL of molten (65-70° C.) wheat germ-based artificial diet was pipetted into each well of a four by six (24 well) multi-well plate (ID#430345-15.5 mm dia.×17.6 mm deep; Corning Costar Corp., One Alewife Center, Cambridge, Mass. 02140). The diet was allowed to cool to ambient temperature before treatment with candidate insecticide.\nThe robot subsequently pipetted 40 microliters of the so-prepared solution onto the surface of the diet in each of three wells in the 24 multi-well plate. The process was repeated with solutions of seven other candidate insecticides. […] Appropriate untreated controls containing only DMSO on the diet surface were also included in this test.\nFor evaluations of the insecticidal activity of a candidate insecticide at varying rates of application, the test was established as described above using sub-multiples of the standard 50 millimolar DMSO solution of candidate insecticide. […] In these evaluations there were six replicates of each rate of application placed on the surface of the diet in the 24 multi-well plate, for a total of four rates of application of candidate insecticide in each plate.\nIn each well of the test plate was placed one second instar tobacco budworm larvae, each weighing approximately five milligrams. After the larvae were placed in each well, the plate was sealed with clear polyfilm adhesive tape. The tape over each well was perforated to ensure an adequate air supply. The plates were then held in a growth chamber at 25° C. and 60% relative humidity for five days (light 14 hours/day).\nAfter the five-day exposure period insecticidal activity for each rate of application of candidate insecticide was assessed as percent inhibition of insect weight relative to the weight of insects from untreated controls, and percent mortality when compared to the total number of insects infested.",
  "data": [
    {"compound": "O=S(=O)(c1ccc(C(F)(F)F)cc1)N1CCN(c2c(Cl)cc(OCC=C(Cl)Cl)cc2Cl)CC1", "note": "[Compound 26, 5-(3,3-dichloroprop-2-enyloxy)-1,3-dichloro-2-{4-[4-(trifluoromethyl)phenylsulfonyl]piperazinyl}benzene]", "values": [
      {"measurement": "Percent Mortality", "result": 100, "unit": "%"},
      {"measurement": "Percent Growth Inhibition", "result": 100, "unit": "%"}
    ]},
    {"compound": "OC1(c2ccc(Cl)cc2)CCN(CCOc2c(Cl)cc(OCC=C(Cl)Cl)cc2Cl)CC1", "note": "[Compound 35, 1-{2-[4-(3,3-dichloroprop-2-enyloxy)-2,6-dichlorophenoxy]ethyl}-4-(4-chlorophenyl)piperidin-4-ol]", "values": [
      {"measurement": "Percent Mortality", "result": 100, "unit": "%"},
      {"measurement": "Percent Growth Inhibition", "result": 100, "unit": "%"}
    ]},
    {"compound": "tert-butyl 4-{[4-(3,3-dichloroprop-2-enyloxy)-2,6-dichlorophenoxy]methyl}piperidinecarboxylate [Compound 4]", "values": [
      {"measurement": "Percent Mortality", "result": 100, "unit": "%"},
      {"measurement": "Percent Growth Inhibition", "result": 100, "unit": "%"}
    ]},
    {"compound": "2-{2-[3,4-dichlorophenyl)piperazinyl]ethoxy}-5-(3,3-dichloroprop-2-enyloxy)-1,3-dichlorobenzene [Compound 20]", "values": [
      {"measurement": "Percent Mortality", "result": 100, "unit": "%"},
      {"measurement": "Percent Growth Inhibition", "result": 100, "unit": "%"}
    ]}
  ]
}
